This note sets out measurements from patent US11957699B2, “Composition comprising punicalagin for inhibiting PAR2 activity” (INDUSTRY-ACADEMIC COOPERATION FOUNDATION, YONSEI UNIVERSITY, priority 2018, dated 2024).

Test [1] concerns C57BL6N mice with colitis induced by DSS. The experiment in a line: Colitis induced by dextran sodium sulfate (DSS) in mice. The class given is in vivo. On the procedure: In 7-week-old C57BL6N mice, it was confirmed whether punicalagin has an effect of alleviating symptoms of colitis induced by dextran sodium sulfate (DSS).
Specifically, while dextran sodium sulfate (DSS), which is a colitis-causing substance, was diluted in water at 2.5% and was fed to the mice for 9 days, 1 mg/kg (n=4), 3 mg/kg (n=4), or 10 mg/kg (n=5) punicalagin was dissolved in physiological saline and intraperitoneally injected once every 48 hours, and the mice were weighed once a day. As control groups, a group which was fed only with 2.5% DSS (n=4), a group which was not fed with DSS and was not injected with punicalagin (n=3), and a group which was not fed with DSS and was injected with punicalagin at 10 mg/kg (n=3) were established, and weight changes, tissue damage, proinflammatory cytokine concentrations, and the like were measured.

Test [2] addresses T1, PAR2 (Homo sapiens, UniProt P55085).
T1 sequence (P55085 26-397): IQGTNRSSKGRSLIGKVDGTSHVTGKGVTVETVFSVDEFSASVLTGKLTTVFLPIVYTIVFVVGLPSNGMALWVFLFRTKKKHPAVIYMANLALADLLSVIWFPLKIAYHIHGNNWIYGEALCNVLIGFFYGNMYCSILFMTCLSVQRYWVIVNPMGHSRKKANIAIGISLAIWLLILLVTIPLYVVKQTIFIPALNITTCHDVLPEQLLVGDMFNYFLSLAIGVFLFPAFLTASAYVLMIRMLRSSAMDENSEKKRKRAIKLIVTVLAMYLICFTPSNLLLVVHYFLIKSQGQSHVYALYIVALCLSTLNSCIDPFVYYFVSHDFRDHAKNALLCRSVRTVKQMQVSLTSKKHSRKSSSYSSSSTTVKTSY
The test can be described thus: CaCC-dependent Cl- secretion (short-circuit current, Ussing chamber) by PAR2-AP in primary cultured human conjunctival epithelial cells. The class given is cell-based. The arrangement: endogenous in cells. The conditions noted are these: 10 μM for 10 minutes, 100 μM PAR2-AP, after 100 μM amiloride. On the procedure:
After primary cultured human conjunctival epithelial cells expressing PAR2 were cultured in a transwell, followed by removal of a culture medium on the side of an apical membrane, retinoic acid was added to the side of a basolateral membrane to differentiate for about 2 weeks (Invest Ophthalmol Vis Sci. 2013 Oct. 29; 54(10): 7143-52), and then, short-circuit currents were measured using a Ussing chamber. […] Next, by treating 10 μM forskolin, which is a an activator of the cystic fibrosis transmembrane conductance regulator (CFTR), the effect of promoting Cl^− secretion by the cystic fibrosis transmembrane conductance regulator (CFTR) channel was measured, and then, by treating 10 μM CFTRihn-172(5-[(4-carboxyphenyl)methylene]-2-thioxo-3-[(3-trifluoromethyl)phenyl-4-thiazolidinone]) (J Clin Invest. 2002 December; 110(11): 1651-8), which is a CFTR inhibitor, it was confirmed that Cl^− secretion by the CFTR channel was inhibited (panel A of FIG. 3).
Meanwhile, Cl^− secretion by PAR1-AP was not measured as a result of the above experiment, and in order to confirm the inhibitory effect of Cl^− secretion during punicalagin treatment. […]

The subject of test [3] is NZB/W F1 mice with lupus nephritis. The experiment in a line: Lupus nephritis mouse model (NZB/W F1). The class given is in vivo. How it is done:
With NZB/W F1 mice that were purchased from Central Lab. Animal Inc., the effect of punicalagin on symptoms of lupus nephritis was confirmed.
As control groups, there were two groups including a nephritis-induced group that was injected only with physiological saline and a nephritis-induced group that was injected with 7 mg/kg methylprednisolone (MPL), which is a standard therapeutic agent for lupus nephritis, and proteinuria was measured twice a week (panel A of FIG. 9).
Next, the protective effect of punicalagin on renal structural damage against lupus nephritis was histologically evaluated. To this end, kidneys were extracted and PAS stained in 30-week-old mice, and the degree of damage to glomeruli, ducts, and blood vessels was histologically quantified. In addition, when lupus nephritis was induced, the expressions of IgG and C3, which are autoantibodies mostly expressed in kidney tissues, were fluorescence-stained and observed under a fluorescence microscope.
In order to determine the mechanism of the alleviating effect of punicalagin on lupus nephritis, the spleen was extracted from 30-week-old mice, the spleen weight and the number of splenocytes were measured, and changes in T cells in the spleen were analyzed by FACS.
After serum was isolated from 30-week-old mice, it was analyzed by the enzyme immunoassay to determine whether punicalagin inhibited or increased cytokines that were expressed by lupus nephritis.
In order to determine the alleviating effect of punicalagin on lupus nephritis, serum was isolated from 30-week-old mice, and the expression of B cell autoantibodies was analyzed by the enzyme immunoassay.
In order to determine the alleviation mechanism of punicalagin against lupus nephritis, the expressions of VCAM-1 and ICAM-1 were analyzed by immunohistochemical staining in renal tissues of 30-week-old mice.

The mark [4] stands for this setting: 1, 3 or 10 mg/kg intraperitoneally.
Setting [5] is: 3 mg/kg, 1 mg/kg, and 0.3 mg/kg.
Where [6] appears, read: 3 mg/kg, 1 mg/kg, and 0.3 mg/kg, similar to methylprednisolone.

As to `O=CC1OC(=O)c2cc(O)c(O)c(O)c2-c2c(cc(O)c(O)c2O)C(=O)OC1C1OC(=O)c2cc(O)c(O)c(O)c2-c2c(O)c(O)c3oc(=O)c4c(c(O)c(O)c5oc(=O)c2c3c54)-c2c(cc(O)c(O)c2O)C(=O)OCC1O` (centres unmarked) [punicalagin, 1,2,3,11,12,13-hexahydroxy-5,10-dioxo-8-[3,4,5,11,17,18,19,22,23,34,35-undecahydroxy-8,14,26,31-tetraoxo-9,13,25,32-tetraoxaheptacyclo[25.8.0.0^2,7.0^15,20.0^21,30.0^24,29.0^28,33]pentatnaconta-1(35),2,4,6,15,17,19,21,23,27,29,33-dodecaen-10-yl]-5,7,8,10-tetrahydrodibenzo[f,h][1,4]dioxecin-7-carbaldehyde], in test [1] (setting [4]), the “colon tissue damage caused by DSS” value is on record as “inhibited”, the “concentration of proinflammatory cytokines increased by DSS” value is given as “significantly reduced” and the “length of the colon reduced by DSS” value was “recovered”. In addition, the “weight loss by DSS” value in test [1] (1, 3 or 10 mg/kg intraperitoneally once every 48 hours, 2.5% DSS 9 days) is on record as “inhibited weight loss by DSS in a concentration-dependent manner”. For the same molecule, the “increase in CaCC-dependent Cl- secretion on PAR2 activation” value in test [2] is “inhibited”. Also, the kidney weight entry in test [3] (1 mg/kg) is given as “reduced”. Moreover, the “serum expressions of anti-dsDNA, IgG1, IgG2a, IgG2b, and IgG3” value in test [3] (1 mg/kg and 10 mg/kg) is “decreased”. Besides, the “expression of regulatory T cells (Treg)” value in test [3] (3 mg/kg) is listed as “significantly increased”. In addition, the “number of CD4 T cells in the spleen and expressions of TH1, TH2, and TH17 T cells (FACS)” value in test [3] (3 mg/kg and 1 mg/kg) was “significantly reduced”. Moreover, the “lower proteinuria compared to the nephritis-induced group” value in test [3] (3 mg/kg and 1 mg/kg, at the level of 7 mg/kg methylprednisolone) amounted to 60%. For the same molecule, the serum creatinine concentration result in test [3] (3 mg/kg group) is “lowest”. The “degree of damage to glomeruli, ducts, and blood vessels (PAS staining)” value in test [3] (3 mg/kg, 1 mg/kg, and 0.1 mg/kg, 30-week-old mice, similar to methylprednisolone) is “alleviated”. Moreover, in test [3] (setting [5]), the “IgG and C3 depositions in kidney tissue (fluorescence)” value is “significantly reduced”; the “expressions of VCAM-1 and ICAM-1 in kidney tissues (immunohistochemical staining)” value was “significantly reduced”; the “serum expressions of IL-10 and TGF-β1” value is listed as “increased”; the “total number of splenocytes” value is “not increased”. Further, in test [3] (setting [6]), the “serum expressions of IFN-γ, IL-17A, and IL-6” value is “reduced”; the “weight of the spleen” value is recorded as “not increased”. For the same molecule, the “mortality from 23 weeks to 30 weeks” value in test [3] (3, 1 and 0.3 mg/kg intraperitoneally three times a week) was “none of the subjects died”. Moreover, the “serum creatinine concentration vs nephritis-induced group” value in test [3] (punicalagin-treated groups (3, 1, 0.3 mg/kg)) is “lower”.
